Results reported in patent US11179329B2, “Therapeutical use of H3-ligands” (BIOPROJET Pharma, priority 2017, dated 2021).
Read-outs that look alike come from different tables or passages of the source.

What was measured:
[1] = Comparative pharmacokinetic data in mice (plasma and brain); settings: male swiss mice; for AUC brain / AUC plasma: normalized at 1 mg of base/kg, 24 hours sampling
Experimental: (§1) Compounds were administered to male swiss mice at a dose close to 1 mg of base/kg.

[2] = mouse, in vivo
Experimental: as §1

[3] = in vivo; cited from earlier work
histamine H3 receptor = histamine H3 receptor (Homo sapiens, UniProt Q9Y5N1); settings: cited from earlier work
[4] = Solid-state stability / hygroscopicity of the dihydrochloride forms; format: physicochemical
Experimental: The tetrahydrate of compound (A) is stable for relative humidity ranging from at least 30% to 70% which is an improved property as compared to the hygroscopic nature of the previously described dihydrochloride. The tetrahydrate of compound (A) is also stable for temperatures ranging from 20° C. to 40° C.

[5] = PK results in human, Compound (A) given orally once-a-day; format: in vivo; settings: for Cmax: po, 60 ug
Experimental: Steady state seems to be attained after 7 to 8 days of treatment for the 60 μg dose.

vigilance = test: Activity on vigilance in human; format: in vivo
H3 receptor = test: H3R occupancy in brain by PET imaging with [11C]GSK189254 in healthy volunteers; format: in vivo; settings: human
Experimental: The process of imaging requires the injection of a positron-emitting radiotracer that binds to the receptor followed by the measurement of this binding using the PET scanner.
This method allows to predict the therapeutic dose of a new H3 receptor inverse agonist/antagonist in two steps: 1/the degree of receptor occupancy associated with the dose ensuring therapeutic efficacy of a known drug A is determined, 2/the dose of the new drug B ensuring the same receptor occupancy as A at therapeutic dose is evaluated.
This strategy was applied by comparing H3R occupancy in healthy volunteers receiving pitolisant, an approved and marketed H3R inverse agonist, at its oral maximal therapeutic dose of 40 mg to occupancy by Compound (A) given at several dosages.

[6] = PK results in human, Compound (A) given orally once-a-day; format: in vivo; settings: for Cmax: serum, po, 90 ug

histamine H3 receptor, sequence (Q9Y5N1 whole entry, species assumed): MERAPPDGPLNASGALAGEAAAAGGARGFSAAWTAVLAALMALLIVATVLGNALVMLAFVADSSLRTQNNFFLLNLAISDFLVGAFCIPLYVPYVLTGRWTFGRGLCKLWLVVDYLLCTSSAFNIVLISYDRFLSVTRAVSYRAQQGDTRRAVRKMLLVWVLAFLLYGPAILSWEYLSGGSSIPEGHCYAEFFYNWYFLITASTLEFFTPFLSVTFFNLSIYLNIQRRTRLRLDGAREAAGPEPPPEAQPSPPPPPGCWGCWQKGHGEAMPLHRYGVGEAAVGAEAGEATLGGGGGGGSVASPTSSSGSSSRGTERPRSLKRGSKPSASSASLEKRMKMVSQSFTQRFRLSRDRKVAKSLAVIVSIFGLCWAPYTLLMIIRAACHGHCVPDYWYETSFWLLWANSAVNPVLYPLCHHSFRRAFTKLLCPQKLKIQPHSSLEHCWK

| Molecule | ratio of plasma AUC over the AUC of the dihydrochloride tetrahydrate [1] | AUC brain [1] [ng·h/g] | AUC plasma [1] [ng·h/mL] | ratio of plasma AUC over the AUC of the dihydrochloride tetrahydrate [2] | further results |
| --- | --- | --- | --- | --- | --- |
| C[C@H]1CCCN(CCCOc2ccc(-c3cc[n+]([O-])cc3)cc2)C1.O=S(=O)(O)O [Example 15, (3S)-4-{4-[3-(3-methylpiperidin-1-yl)propoxy]phenyl}pyridine 1-oxide sulfate] | 0.8 | 639 | 466 |  |  |
| C[C@H]1CCCN(CCCOc2ccc(-c3cc[n+]([O-])cc3)cc2)C1.O=C(O)/C=C/C(=O)O [Example 9, (3S)-4-{4-[3-(3-methylpiperidin-1-yl)propoxy]phenyl}pyridine 1-oxide fumarate] | 0.7 | 882 | 448 |  |  |
| (3S)-4-{4-[3-(3-methylpiperidin-1-yl)propoxy]phenyl}pyridine 1-oxide 5-sulfosalicylate [Example 18] | 0.6 | 513 | 400 |  |  |
| C[C@H]1CCCN(CCCOc2ccc(-c3cc[n+]([O-])cc3)cc2)C1 [Example 5, (3S)-4-{4-[3-(3-methylpiperidin-1-yl)propoxy]phenyl}pyridine 1-oxide base] | 1.2 | 860 | 769 |  |  |
| (3S)-4-{4-[3-(3-methylpiperidin-1-yl)propoxy]phenyl}pyridine 1-oxide sesquiglycolate monohydrate [Example 21] | 0.6 | 484 | 348 |  |  |
| (3S)-4-{4-[3-(3-methylpiperidin-1-yl)propoxy]phenyl}pyridine 1-oxide orotate dihydrate [Example 17] | 0.6 | 529 | 389 |  |  |
| C[C@H]1CCCN(CCCOc2ccc(-c3cc[n+]([O-])cc3)cc2)C1.O=C(O)c1cc2ccccc2cc1O [Example 20, (3S)-4-{4-[3-(3-methylpiperidin-1-yl)propoxy]phenyl}pyridine 1-oxide 3-hydroxy-2-naphtoate] |  |  |  | 0.6 |  |
| C[C@H]1CCCN(CCCOc2ccc(-c3cc[n+]([O-])cc3)cc2)C1.O=C(O)c1cc2ccccc2c(Cc2c(O)c(C(=O)O)cc3ccccc23)c1O [Example 8, (3S)-4-{4-[3-(3-methylpiperidin-1-yl)propoxy]phenyl}pyridine 1-oxide pamoate] | 0.9 | 952 | 587 |  |  |
| Br.C[C@H]1CCCN(CCCOc2ccc(-c3cc[n+]([O-])cc3)cc2)C1 [Example 13, (3S)-4-{4-[3-(3-methylpiperidin-1-yl)propoxy]phenyl}pyridine 1-oxide bromhydrate] |  |  |  | 0.6 |  |
| [11CH3]NC(=O)c1ccc(Oc2ccc3c(c2)CCN(C2CCC2)CC3)nc1 [[^11C]GSK189254] |  |  |  |  | brain penetration [3]: good brain penetration; terminal half-life [3]: 1.6 ± 0.4 h; affinity for the histamine H3 receptor (histamine H3 receptor): high affinity |
| C[C@H]1CCCN(CCCOc2ccc(-c3cc[n+]([O-])cc3)cc2)C1.Cl.Cl.O.O.O.O [Example 4, (3S)-4-{4-[3-(3-methylpiperidin-1-yl)propoxy]phenyl}pyridine 1-oxide dihydrochloride tetrahydrate] | 1.0 | 1040 | 619 |  | stability (general) [4]: very stable; stability against relative humidity ([4]; relative humidity ranging from at least 30% to 70%): stable; stability against temperature ([4]; temperatures ranging from 20° C. to 40° C.): stable |
| CCO.C[C@H]1CCCN(CCCOc2ccc(-c3cc[n+]([O-])cc3)cc2)C1.C[C@H]1CCCN(CCCOc2ccc(-c3cc[n+]([O-])cc3)cc2)C1.O.O.O=S(=O)(O)c1cccc2c(S(=O)(=O)O)cccc12.O=S(=O)(O)c1cccc2c(S(=O)(=O)O)cccc12 [Example 11, (3S)-4-{4-[3-(3-methylpiperidin-1-yl)propoxy]phenyl}pyridine 1-oxide 1,5-naphtalenedisulfonate monohydrate hemiethanolate] |  |  |  | 0.7 |  |
| C[C@H]1CCCN(CCCOc2ccc(-c3cc[n+]([O-])cc3)cc2)C1.O=P(O)(O)O [Example 12, (3S)-4-{4-[3-(3-methylpiperidin-1-yl)propoxy]phenyl}pyridine 1-oxide phosphate] | 0.6 | 630 | 350 |  |  |
| C[C@H]1CCCN(CCCOc2ccc(-c3cc[n+]([O-])cc3)cc2)C1.O=C(O)C(=O)O [Example 6, (3S)-4-{4-[3-(3-methylpiperidin-1-yl)propoxy]phenyl}pyridine 1-oxide oxalate] | 0.9 | 923 | 562 |  |  |
| C[C@H]1CCCN(CCCOc2ccc(-c3cc[n+]([O-])cc3)cc2)C1 [Compound (A), (3S)-4-{4-[3-(3-methylpiperidin-1-yl)propoxy]phenyl}pyridine 1-oxide] |  |  |  |  | dose proportionality of serum exposure (mean Cmax and AUC0-24 h dose normalized ratios) ([5]; human volunteers, between 60 and 90 μg o.d., Day 1 and Day 10): tendency to increase more than dose-proportionally; decrease of total body clearance (Clss/F) after repeated dosing ([5]; human, 60 μg): 65%; higher AUC0-24 h after repeated dosing (Day 10) than after a single dose (Day 1) ([5]; human, 60 μg): 73%; higher Cmax after repeated dosing (Day 10) than after a single dose (Day 1) ([5]; human, 60 μg): 42%; Cmax ([5]; human, serum, human, oral 60 μg once-a-day, after repeated dose): 0.172 ng/mL; Cmax ([5]; human, serum, human, oral 60 μg, after a single dose): 0.121 ng/mL; half-life ([5]; serum, oral, human, determined at Day 10 after multiple administrations, read-out: mean t1/2 (converted)): ~33 h; activity on vigilance (vigilance; 30 μg daily, when going to bed at night): delay in falling asleep; effect of repeated treatment on sleep (vigilance; 90 μg once-a-day for 10 days): some insomnia; Percent H3R occupancy ± SD At through (24 h) (H3 receptor; 30 μg once): −46.50 ± 12.71%; potency relative to the marketed drug pitolisant (H3 receptor; doses of equal H3R occupancy): 1,000 fold; decrease of total body clearance (Clss/F) after repeated dosing ([6]; 90 μg): 74%; higher AUC0-24 h after repeated administration (% accumulation) ([6]; 90 μg): 113%; higher Cmax after repeated administration (% accumulation) ([6]; 90 μg): 101%; Cmax ([6]; oral 90 μg once-a-day, after repeated dose): 0.344 ng/mL; Cmax ([6]; oral 90 μg, after a single dose): 0.171 ng/mL |
| C[C@H]1CCCN(CCCOc2ccc(-c3cc[n+]([O-])cc3)cc2)C1.O.O=C(O)c1ccc2ccccc2c1O [Example 19, (3S)-4-{4-[3-(3-methylpiperidin-1-yl)propoxy]phenyl}pyridine 1-oxide 1-hydroxy-2-naphtoate monohydrate] |  |  |  | 0.6 |  |
| C[C@H]1CCCN(CCCOc2ccc(-c3cc[n+]([O-])cc3)cc2)C1.O.O.O.O=C(O)C(O)C(O)C(=O)O [Example 7, (3S)-4-{4-[3-(3-methylpiperidin-1-yl)propoxy]phenyl}pyridine 1-oxide L-tartrate trihydrate] | 0.7 | 814 | 447 |  |  |
| C[C@H]1CCCN(CCCOc2ccc(-c3cc[n+]([O-])cc3)cc2)C1.C[C@H]1CCCN(CCCOc2ccc(-c3cc[n+]([O-])cc3)cc2)C1.Cc1ccc(S(=O)(=O)O)cc1.Cc1ccc(S(=O)(=O)O)cc1.O.O.O.O.O [Example 10, (3S)-4-{4-[3-(3-methylpiperidin-1-yl)propoxy]phenyl}pyridine 1-oxide para-toluenesulfonate sestertihydrate (2.5)] |  |  |  | 1.2 |  |
| Br.Br.C[C@H]1CCCN(CCCOc2ccc(-c3cc[n+]([O-])cc3)cc2)C1 [Example 16, (3S)-4-{4-[3-(3-methylpiperidin-1-yl)propoxy]phenyl}pyridine 1-oxide dibromhydrate] |  |  |  | 0.6 |  |
